Legend:
Type in all cases: cell-based
E. coli MG1655 = assay: MIC assay, 96 well broth dilution with MTT staining; parameters: unit not given beside the values; conditions: LB, 35-37° C., 20 h
Description: (§1) A 96 well plate with 100 μL test medium in all wells was prepared by handheld multipipettor. A stock solution of the antibiotic or compound in DMSO (0.05˜10 mg/mL, 5 μL) and the same medium (95 μL) were put together into column one, where the compound concentration doubled the highest one to be tested. Two columns were necessary for each compound to check the reproducibility. The compound was diluted by adding 100 μL from column one to column two with a 50% volume mix done three times; diluting serially across the plate was continued.
(§2) The day before the assay was scheduled to be run, strains were suspended in the test media (Brain Heart Infusion (BHI) containing 0.1% casamino acids for S. aureus, S. epidermidis, and E. faecalis, Trypticase Soy Broth (TSB) containing 5% sheep blood for S. pneumoniae, and Lysogeny Broth (LB) for E. coli) and incubated overnight at 35-37° C. The suspension was diluted with the same media to 1%, 100 μL of which was added to each well of the MIC plate. The MIC plate was incubated at 35-37° C. for 20 h. A thiazolyl blue tetrazolium bromide (MTT) solution (1 mg/mL-water, 50 μL) was added into each well and the resulting MIC plate was incubated at 35-37° C. for a few hours to stain wells in which cell proliferated. Growth is also visible as any turbidity in wells.

E. faecalis 29212 = assay: as above; parameters: unit not given beside the values; conditions: BHI containing 0.1% casamino acids, 35-37° C., 20 h
Description: as §1, §2

E. faecalis 33186 = assay: as above; parameters: unit not given beside the values; conditions: BHI containing 0.1% casamino acids, 35-37° C., 20 h
Description: as §1, §2

S. aureus 13709 = assay: as above; parameters: unit not given beside the values; conditions: BHI containing 0.1% casamino acids, 35-37° C., 20 h
Description: as §1, §2

S. aureus 25923 = assay: as above; parameters: unit not given beside the values; conditions: S. aureus 25923 (second strain line); BHI containing 0.1% casamino acids; 35-37° C., 20 h
Description: as §1, §2

S. epidermidis 1228 = assay: as above; parameters: unit not given beside the values; conditions: BHI containing 0.1% casamino acids, 35-37° C., 20 h
Description: as §1, §2

S. epidermidis 700562 = assay: as above; parameters: unit not given beside the values; conditions: BHI containing 0.1% casamino acids, 35-37° C., 20 h
Description: as §1, §2

S. pneumoniae #1629 = assay: as above; conditions: TSB containing 5% sheep blood, 35-37° C., 20 h
Description: as §1, §2

S. pneumoniae 6303 = assay: as above; conditions: TSB containing 5% sheep blood, 35-37° C., 20 h
Description: as §1, §2

E. coli NR698 = system: E. coli NR698; parameters: unit not given beside the values; conditions: LB, 35-37° C., 20 h
Description: as §1, §2

[1] = S. aureus 13709 (first strain line)
[2] = S. aureus 13709 (third strain line)

| Compound | MIC (E. coli MG1655) | MIC (E. faecalis 29212) | MIC (E. faecalis 33186) | MIC (S. aureus 13709; [1]) | MIC (S. aureus 13709; [2]) | MIC (S. aureus 25923) | MIC (S. epidermidis 1228) | MIC (S. epidermidis 700562) | MIC (S. pneumoniae #1629) | MIC (S. pneumoniae 6303) | MIC (E. coli NR698) |
| --- | --- | --- | --- | --- | --- | --- | --- | --- | --- | --- | --- |
| CC(=O)NC1C(OC2C(COC3OC(CO)C(O)C(O)C3O)OC(OC3C(OP(=O)(O)OCC(OCCCCCCCCCCC(F)(F)C(F)(F)C(F)(F)C(F)(F)C(F)(F)C(F)(F)C(F)(F)C(F)(F)F)C(=O)O)OC(C(N)=O)C(C)(O)C3OC(N)=O)C(NC(C)=O)C2O)OC(C)C(OC2OC(C(=O)NC3=C(O)CCC3=O)C(O)C(O)C2O)C1O.N [1f, N1-[(2-Hydroxy-5-oxo-cyclopenten-1-yl)-(5S)-β-D-galactopyranuronamide]-(1→4)-2-acetamide-2,6-dideoxy-β-D-gluopyranosyl-(1→4)-[β-D-glucopyranosyl-(1→6)]-2-acetamido-2-deoxy-β-D-glucopyranosyl)-(1→2)-3-O-carbamoyl-1-O—{[(R)-2-carboxy-2-(11,11,12,12,13,13,14,14,15,15,16,16,17,17,18,18,18-heptadecafluoro-octadecan-1-yloxy)ethoxy]hydroxyphosphoryl}-4-C-methyl-α-D-glucopyranuronamide] | 250 | 0.98 | 2.0 | 3.9 | 2.0 | 2.0 | 0.98 | 2.0 | 0.98 | 2.0 | > 0.16 |
| CC(=O)NC1C(OC2C(COC3OC(CO)C(O)C(O)C3O)OC(OC3C(OP(=O)(O)OCC(OCc4cccc(OCc5cccc(-c6cccc(C)c6)c5)c4)C(=O)O)OC(C(N)=O)C(C)(O)C3OC(N)=O)C(NC(C)=O)C2O)OC(C)C(OC2OC(C(=O)NC3=C(O)CCC3=O)C(O)C(O)C2O)C1O.N [1j, N1-[(2-Hydroxy-5-oxo-cyclopenten-1-yl)-(5S)-β-D-galactopyranuronamide]-(1→4)-2-acetamide-2,6-dideoxy-β-D-gluopyranosyl-(1→4)-[β-D-glucopyranosyl-(1→6)]-2-acetamido-2-deoxy-β-D-glucopyranosyl)-(1→2)-3-O-carbamoyl-1-O—{[(R)-2-carboxy-2-(3-((3′-methyl-[1,1′-biphenyl]-3-yl)methoxy)phenylmethan-1-yloxy)ethoxy]hydroxyphosphoryl}-4-C-methyl-α-D-glucopyranuronamide] | > 250 | >250 >250 | >250 >250 | >250 >250 >250 | >250 >250 >250 | >250 >250 >250 | 125 | > 250 | 16 | 16 | 0.98 |
| CC(=O)NC1C(OC2C(COC3OC(CO)C(O)C(O)C3O)OC(OC3C(OP(=O)(O)OCC(OCC=C(C)CCC=C(C)CCC=C(C)C)C(=O)O)OC(C(N)=O)C(C)(O)C3OC(N)=O)C(NC(C)=O)C2O)OC(C)C(OC2OC(C(=O)NC3=C(O)CCC3=O)C(O)C(O)C2O)C1O.N [1c, N1-[(2-Hydroxy-5-oxo-cyclopenten-1-yl)-(5S)-β-D-galactopyranuronamide]-(1→4)-2-acetamide-2,6-dideoxy-β-D-gluopyranosyl-(1→4)-[β-D-glucopyranosyl-(1→6)]-2-acetamido-2-deoxy-β-D-glucopyranosyl)-(1→2)-3-O-carbamoyl-1-O—{[(R)-2-carboxy-2-((2Z,6E)-3,7,11-trimethyl-dodeca-2,6,10-trien-1-yloxy)ethoxy]hydroxyphosphoryl}-4-C-methyl-α-D-glucopyranuronamide] | > 250 | 250 >250 | 250 >250 | >250 >250 250 | >250 >250 250 | >250 >250 250 | >250 >250 | >250 >250 | 31 | 63 | 0.98 |
| CC(=O)NC1C(OC2C(COC3OC(CO)C(O)C(O)C3O)OC(OC3C(OP(=O)(O)OCC(OCc4cccc(OCc5cccc(-c6cccc(OCc7cccc(-c8ccccc8)c7)c6)c5)c4)C(=O)O)OC(C(N)=O)C(C)(O)C3OC(N)=O)C(NC(C)=O)C2O)OC(C)C(OC2OC(C(=O)NC3=C(O)CCC3=O)C(O)C(O)C2O)C1O.N [1h, N1-[(2-Hydroxy-5-oxo-cyclopenten-1-yl)-(5S)-β-D-galactopyranuronamide]-(1→4)-2-acetamide-2,6-dideoxy-β-D-gluopyranosyl-(1→4)-[β-D-glucopyranosyl-(1→6)]-2-acetamido-2-deoxy-β-D-glucopyranosyl)-(1→2)-3-O-carbamoyl-1-O—{[(R)-2-carboxy-2-(3-((3′-([1,1′-biphenyl]-3-ylmethoxy)-[1,1′-biphenyl]-3-yl)methoxy)phenylmethan-1-yloxy)ethoxy]hydroxyphosphoryl}-4-C-methyl-α-D-glucopyranuronamide] | 125 | 0.39 | 0.78 | 0.39 | 0.20 | 0.20 | – | – | 2.0 | 0.98 | 0.039 |
| CCCCCCCCCCCCCCCCCCCCOC(COP(=O)(O)OC1OC(C(N)=O)C(C)(O)C(OC(N)=O)C1OC1OC(COC2OC(CO)C(O)C(O)C2O)C(OC2OC(C)C(OC3OC(C(=O)NC4=C(O)CCC4=O)C(O)C(O)C3O)C(O)C2NC(C)=O)C(O)C1NC(C)=O)C(=O)O.N [1d, N1-[(2-Hydroxy-5-oxo-cyclopenten-1-yl)-(5S)-β-D-galactopyranuronamide]-(1→4)-2-acetamide-2,6-dideoxy-β-D-gluopyranosyl-(1→4)-[β-D-glucopyranosyl-(1→6)]-2-acetamido-2-deoxy-β-D-glucopyranosyl)-(1→2)-3-O-carbamoyl-1-O—{[(R)-2-carboxy-2-(eicosan-1-yloxy)ethoxy]hydroxyphosphoryl}-4-C-methyl-α-D-glucopyranuronamide] | 7.8 | – | – | 1.3 | 0.63 | 0.63 | 0.63 | 1.3 | 3.1 | 2.0 | 0.0049 |
| CCCCCCCCCCCCCCCCCCOC(COP(=O)(O)OC1OC(C(N)=O)C(C)(O)C(OC(N)=O)C1OC1OC(COC2OC(CO)C(O)C(O)C2O)C(OC2OC(C)C(OC3OC(C(=O)NC4=C(O)CCC4=O)C(O)C(O)C3O)C(O)C2NC(C)=O)C(O)C1NC(C)=O)C(=O)O.N [1e, N1-[(2-Hydroxy-5-oxo-cyclopenten-1-yl)-(5S)-β-D-galactopyranuronamide]-(1→4)-2-acetamide-2,6-dideoxy-β-D-gluopyranosyl-(1→4)-[β-D-glucopyranosyl-(1→6)]-2-acetamido-2-deoxy-β-D-glucopyranosyl)-(1→2)-3-O-carbamoyl-1-O—{[(R)-2-carboxy-2-(octadecan-1-yloxy)ethoxy]hydroxyphosphoryl}-4-C-methyl-α-D-glucopyranuronamide] | 63 | 0.49 | 0.98 | 2.0 | 0.98 | 0.98 | – | – | – | – | 0.0024 |
| CC(=O)NC1C(OC2C(COC3OC(CO)C(O)C(O)C3O)OC(OC3C(OP(=O)(O)OCC(OCC=C(C)CCC=C(C)CCC=C(C)CCC=C(C)C)C(=O)O)OC(C(N)=O)C(C)(O)C3OC(N)=O)C(NC(C)=O)C2O)OC(C)C(OC2OC(C(=O)NC3=C(O)CCC3=O)C(O)C(O)C2O)C1O.N [1b, N1-[(2-Hydroxy-5-oxo-cyclopenten-1-yl)-(5S)-β-D-galactopyranuronamide]-(1→4)-2-acetamide-2,6-dideoxy-β-D-gluopyranosyl-(1→4)-[β-D-glucopyranosyl-(1→6)]-2-acetamido-2-deoxy-β-D-glucopyranosyl)-(1→2)-3-O-carbamoyl-1-O—{[(R)-2-carboxy-2-((2Z,6E,10E)-3,7,11,15-tetramethyl-hexadeca-2,6,10,14-tetraen-1-yloxy)ethoxy]hydroxyphosphoryl}-4-C-methyl-α-D-glucopyranuronamide] | 63 | – | – | 3.9 | 2.0 | 3.9 | – | – | 3.9 | 2.0 | 0.061 |
